Results taken from PMC9296036, “A peptide interfering with the dimerization of oncogenic KITENIN protein and its stability suppresses colorectal tumour progression” (Clinical and Translational Medicine, 2022).
Ends that are not written are not given here.

Assay: Detection of KDIP and truncated forms in tumour and liver tissue by LC-MS/MS (MRM) after intravenous injection
Format: in vivo, mouse
Details: tissues collected 20 min after fifth intravenous injection of KDIP 5 mg/kg, below the limit of detection
Experimental: At 20 min after fifth intravenous injection of KDIP, tumour and liver tissues were collected, immediately frozen using liquid nitrogen and ground with a pestle and mortar. One part of resultant powder by weight was homogenized with two parts of lysis buffer containing 8‐M urea, 25‐mM Tris–HCl (pH 8.5) by volume and was placed in Eppendorf tubes. This lysate was sonicated three times for 2 s with 2‐s intervals of rest at 20% amplitude on ice. Insoluble debris was removed by obtaining supernatant after centrifugation at 14 000 g, 4°C for 15 min.
Peptide extraction from serum or tissue lysate was performed by solid‐phase extraction using Oasis HLB Cartridge 1‐cm^3 (30 mg). HLB cartridges were conditioned using ACN (1 ml) and 50% ACN, .5% FA (1 ml), followed by equilibration using .5% FA (2 ml). A volume of 10‐μl serum and 20 μl of tissue lysate were added by .5% FA to be 1 ml and were loaded on equilibrated cartridges. Cartridges were washed with .5% FA (3 ml), and then peptide was eluted by 50% ACN, .5% FA (500 μl). Eluates were vacuum‐dried using Speed‐Vac and were stored at −80°C until use. Dried samples were reconstituted in .5% FA 50 and 5 μl of sample was loaded on column for LC–MS/MS analysis.
Each sample was analysed using an Agilent 1100 Series high‐performance liquid chromatography pump (Agilent Technologies, USA) coupled to an LTQ linear ion trap mass spectrometer (Thermo Finnigan, USA). Separation of peptide was carried out on a homemade C18‐fused silica column (100‐μm internal diameter) with nano‐electrospray ionization interface. […] Peptide was quantified by multiple reaction monitoring (MRM) in positive ion mode, with a spray voltage of 2.3 kV. […] Furthermore, truncated forms ([…], […]) of KDIP that were detected during stability test were also analysed by following transitions: 468.5 → 404.8 (b16 ^+5), 468.5 → 444.85 (b18 ^+5), 468.5 → 505.7 (b16 ^+4), 468.5 → 551.35 (b18 + H2O^+4), 468.5 → 555.7 (b18 ^+4), 528.45 → 448.85 (b14 ^+4), 528.45 → 499.0 (b16 ^+4), 528.45 → 598.15 (b14 ^+3), 528.45 → 659.25 (b16 + H2O^+3) and 528.45 → 664.95 (b16 ^+3). […]

detection in regressed tumour tissues or liver by mass spectrometry: not detected
Sequence: YARVRRRGPRRWRLVSDEAV [KDIP]
